Columns and labels:
[1] = test system: Toxoplasma gondii tachyzoites (RH88); assay: microbe, parasite or virus in culture; details: Toxoplasma gondii, 48 h, read-out: TgRH88 IC50 (mean ± SEM)
Experimental: (§1) For the initial fixed concentration screening and IC50 determination in T. gondii, we utilized a luciferase expressing RH88 strain to quantify the number of live, actively replicating parasites. To construct this strain, the Fluc and DHFR selection markers had been integrated into the UPRT locus through CRISPR/Cas9, rendering the strain pyrimethamine-resistant ([6]). Screening was performed using a pure compound library provided by the University of Oklahoma Natural Products Discovery Group, containing 683 compounds derived primarily from fungal secondary metabolites. For purposes of testing, HFFs were grown in 96-well microtiter plates in preparation. The media we used to grow cells was referred to a D10 media that was composed of Dulbecco's Modified Eagle Medium (Thermo Fisher; Cat # 11995073), 10% Fetal Bovine Serum (Sigma-Aldrich; Cat # 12306C), 1 × non-essential amino acids (100 ×; Thermo Fisher; Cat # 11140050), HEPES buffer (1M; Fisher Scientific; Cat # SH3023701) at 0.4M, and 10 mg/mL of gentamicin (Fisher Scientific; Cat # 15710072). Compounds were then diluted to 10 µM in 100 µL of fresh D10 media. Each plate utilized artemisinin and DMSO vehicle controls. To each well, 2,500 parasites per 100 µL of D10 media were added. Three technical replicates were then performed. After 48 hours, 160 µL of the D10 media was removed, and plates were subjected to freezing then thawing. Following this, 10 µL of the passive lysis buffer (Promega; Cat# E1910) was added and incubated at room temperature for 15 min. Finally, 100 µL of luciferase assay reagent (Promega; Cat# E1501) was added to each well, and luminescence was measured using a PHERAstar FSX plate reader (BMG Labtech, Germany).
(§2) For IC50 and cytotoxicity determination, we used 384 plates with confluent HFF cells. Compounds were serially diluted 3-fold with a starting concentration of 20 µM. Samples were further diluted by adding an equal volume of media containing 700 parasites. DMSO and […] of KAE609 were used as negative and positive controls, respectively. Assays were performed with a total of three technical replicates and two biological replicates. After incubation for 48 hours, 50 µL of media was removed, and plates were subjected to freezing and thawing. Following this, 10 µL of passive lysis buffer was added and plates were incubated for 15 min at room temperature. Finally, 30 µL of luciferase reagent was added, and the luminescence was measured immediately using a PHERAstar FSX. In parallel, cytotoxicity dose response was performed in the same fashion without the addition of parasites. Cell counting kit-8 reagent (GlpBio; Cat # GK10001) was added at a 1:10 dilution and incubated at 37°C, 5% CO2 for 1 hour. The absorbance was then measured at 450 nm using a PHERAstar FSX. The data management system CDD vault was used for curve fitting and IC50 determination.

[2] = test system: human foreskin fibroblasts (HFFs); assay: HFF cytotoxicity dose response (cell counting kit-8); details: for IC50: Homo sapiens, Fibroblast, 48 h, read-out: HFF IC50 (mean ± SEM)
Experimental: as §2, with “Samples” for “For IC50 and cytotoxicity determination, we used 384 plates with confluent HFF cells. Compounds were serially diluted 3-fold with a starting concentration of 20 µM. Samples”

[3] = test system: Toxoplasma gondii tachyzoites (RH88); assay: T. gondii fixed concentration screen at 5 µM (luciferase); assay type: cell-based; details: 48 hours
Experimental: as §1, with “To each well, 2,500 parasites per 100 µL of D10 media were added. Three technical replicates were then performed. After 48 hours, 160 µL of the D10 media was removed, and plates were subjected to freezing then thawing. Following this, 10 µL of the passive lysis buffer (Promega; Cat# E1910) was added and incubated at room temperature for 15 min.” left out

in vitro = details: human
Experimental: as §2, with “Samples” for “For IC50 and cytotoxicity determination, we used 384 plates with confluent HFF cells. Compounds were serially diluted 3-fold with a starting concentration of 20 µM. Samples”

[4] = test system: Plasmodium falciparum (Dd2); details: mean of duplicate or triplicate experiments; read-out: PfDd2 IC50; cited from earlier work
T. gondii = test system: T. gondii; set-up: method as in earlier work; details: 100 µM; cited from earlier work

Structure (SMILES)	IC50 [1] [nM]	IC50 [2] [nM]	inhibition at 5 µM [3] [%]	IC50 (in vitro) [nM]	toxicity to HFFs ([2]; highest concentration tested (60 µM))	IC50 [4] [nM]	inhibition of T. gondii (T. gondii)
C[C@@H]1CC[C@H]2[C@@H](C)C(=O)O[C@@H]3O[C@@]4(C)CC[C@@H]1[C@]32OO4 [Artemisinin, reference compound]	702 ± 24.7	10500	94	–	–	–	–
CO[C@@H]1[C@H](OC(=O)/C=C/C=C/C=C/C=C/C(=O)O)CC[C@]2(CO2)[C@H]1[C@@]1(C)O[C@@H]1CC=C(C)C [compound 150046, Fumagillin]	58.8 ± 7.3	> 20000	–	> 60000	lack of toxicity	1310	–
CC(C)[C@H]1CC[C@@]2(O)COC(=O)[C@H]2[C@@H]1/C=C(\CO)C(=O)O [hydroheptelidic acid, reference compound]	–	–	–	–	–	–	no activity

From publication PMC10986609, “Identification of fungal natural products with potent inhibition in Toxoplasma gondii” (Microbiology Spectrum, 2024)
